Data published in patent publication US20050288283A1, “Topical formulations for treating allergic diseases” (Alcon, Inc., priority 2004, published 2005).
Counter-ions that a name gives are not always drawn.

Tests used:
[1] = system: human conjunctival tissue mast cells; experiment: Histamine release from human conjunctival mast cells (anti-human IgE challenge); assay type: cell-based; conditions: Mast cell; goat-anti-human IgE 10 μg/mL challenge 15 min, after 1 or 15 minutes drug treatment; read-out: Human Conjunctiva Mast Cell Histamine Release IC50
Experimental: Methods detailing preparation of monodispersed human conjunctival tissue mast cell and mediator release studies with these cells have been described (Miller et al. 1996). Briefly, human conjunctival tissue mast cells were isolated from post-mortem tissue donors obtained within 8 hours of death by various eye banks and transported in Optisol® corneal preservation medium. Tissues were enzymatically digested by repeated exposure (30 min. at 37° C.) to collagenase and hyaluronidase (2× with 200 U each/gm tissue, then 2-4× with 2000 U each/gm tissue) in Tyrode's buffer containing 0.1% gelatin. Each digestion mixture was filtered over Nitex® cloth (100 μm mesh) and washed with an equal volume of buffer. Filtrates were centrifuged at 825×g (7 min). Pellets were resuspended in buffer then combined for enrichment over a […] Percoll® cushion. The enriched pellet was washed and resuspended in supplemented RPMI 1640 medium for equilibration at 37° C.
Cells were harvested from the culture plate and counted for viability (trypan blue exclusion) and mast cell number (toluidine blue 0). Mast cells (5000/tube; 1 mL final volume) were challenged (37° C.) for 15 min with goat-anti-human IgE (10 μg/mL) following treatment (1 or 15 minutes; 37° C.) with test drug or Tyrode's buffer. Total and non-specific release controls were exposed to 0.1% Triton X-100 and goat IgG (10 μg/mL), respectively. The reaction was terminated by centrifugation (500×g, 4° C., 10 min). Supernatants were stored at −20° C. until analyzed for histamine content by R I A Miller, S. et al., Ocular Immunology and Inflammation 4(1): 39-49 (1996).

[2] = biological target: T1, H1 histamine receptor (Cavia porcellus, UniProt P31389); experiment: Histamine receptor radioligand binding in washed rodent brain homogenates ([3H]pyrilamine); design: species or system guinea pig; conditions: 23° C. for 40 min
T1 construct: tissue Pel-Freez (Rogers, Ark.); host or cells: guinea pig forebrain homogenate (washed membranes)
T1 sequence (P31389 whole entry): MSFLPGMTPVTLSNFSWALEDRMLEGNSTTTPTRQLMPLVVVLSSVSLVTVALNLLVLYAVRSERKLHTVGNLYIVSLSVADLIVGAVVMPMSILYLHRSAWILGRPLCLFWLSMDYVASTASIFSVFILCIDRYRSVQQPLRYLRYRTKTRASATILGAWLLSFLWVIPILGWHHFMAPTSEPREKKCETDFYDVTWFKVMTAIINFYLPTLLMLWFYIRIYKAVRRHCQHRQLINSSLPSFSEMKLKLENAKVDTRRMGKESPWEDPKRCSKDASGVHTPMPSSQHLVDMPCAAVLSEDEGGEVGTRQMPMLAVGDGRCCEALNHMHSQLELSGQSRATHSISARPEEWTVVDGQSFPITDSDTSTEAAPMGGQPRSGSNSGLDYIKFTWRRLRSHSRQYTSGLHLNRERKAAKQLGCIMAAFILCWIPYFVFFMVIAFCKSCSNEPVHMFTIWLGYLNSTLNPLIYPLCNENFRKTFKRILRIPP
Experimental: Histamine receptor binding was conducted in washed rodent brain homogenates. Briefly, guinea pig forebrains (for H1 and H2 receptors) and rat forebrains (for H3 receptor), obtained from Pel-Freez (Rogers, Ark.) were homogenized in 20 ml ice-cold phosphate buffered saline (PBS; pH 7.4) using a Polytron tissue disrupter (setting 5-7 for 10 sec) and centrifuged at 40,000 g for 15 min on a Beckman J2-MC centrifuge. The supernatants were discarded, the tissue pellets re-homogenized in fresh PBS buffer and centrifuged as described above. The final pellets were dispersed in 50 mM sodium potassium phosphate buffer (pH 7.5) and kept frozen at −40° C. until used in the binding assays.
The H1 histamine receptor binding assays were performed according to previously published methods with minor modifications (Chang, R. S. L., Tran, V. T., and Snyder, S. H. J. Neurochem., 32:1653-1663, 1979, Hill, S. J., Young, J. M., and Marrian, D. H. Nature, 270:361-363, 1977, Gajtkowski, G. A., Norris, D. B., Rising, T. J., and Wood, T. P. Nature, 304:65-67,1983, Korte, A., Myers, J., Shih, N.-Y., Egan, R. W., and Clark, M. A. Biochem. Biophys. Res. Comm., 168:979-986, 1990 . Briefly, 50 μl of [3H]pyrilamine (1-2 nM); 24 Ci/mmol from NEN, Boston, Mass.), [3H]tiotidine (4-5 nM; 87 Ci/mmol from NEN, Boston, Mass.) or [3H]N-methyl histamine (1-2 nM; 84 Ci/mmol from NEN, Boston, Mass.) were incubated with 200 μl of 2.5-4.0 mg/ml of frozen-thawed brain homogenates in the presence or absence of unlabeled test compounds (50 μl; 10 pM-100 μM) in a total volume of 500 μl in polypropylene tubes. The non-specific binding was determined with 5 mM histamine. Drug dilutions and dispensing of assay components were performed using a computer-controlled automated system (Biomek; Beckman, Fullerton, Calif.). The assays were conducted at 23° C. for 40 min and then terminated by rapid filtration over Whatman GF/B glass fiber filters presoaked in 0.3% polyethyleneimine using a Tomtec cell harvester (Gaithersburg, Md.). The assay tubes were rinsed with 2×6 ml of ice-cold 50 mM TrisHCl buffer (pH 7.4). The filter-bound radioactivity was determined on a Wallac Beta-plate (Gaithersburg, Md.) solid scintillation counter at 40-50% efficiency. The competition binding data were analyzed using an iterative curve-fitting computer program as previously described Michel, A. D. and Whiting, R. L. Brit. J. Pharmacol., 83:460p, 1984, Sharif, N. A., Wong, E. H. F., Loury, D., Stefanich, E., Eglen, R. M., Michel, A. D., and Whiting, R. L. Brit. J. Pharmacol., 102:919-925, 1991,. The drug affinities (dissociation constants, Kis) were calculated according to the Cheng-Prussof equation (Cheng, Y.-C. and Prusoff, W. H. Biochem. Pharmacol., 22:3099-3018, 1973 ): Ki=IC50/(1+L/Kd) where IC50 is the concentration of the drug needed to produce 50% inhibition of the receptor binding, L is the radioligand concentration in the assay and Kd is the dissociation constant of the radioligand.

[3] = system: Histamine induced vascular permeability in guinea pig conjunctiva; experiment: Histamine induced vascular permeability in guinea pig conjunctiva; assay type: in vivo; conditions: topical 20 μl onto eye, 30 min before subconjunctival histamine
Experimental: Male Dunkin Hartley Viral Antibody Free out bread guinea pigs (Charles River Labs, Portage, Mich.), 250-350 grams, (6/group) were injected intravenously (i.v.) via the marginal ear vein with 1.0 ml of Evans Blue dye (1.0 mg/ml). Forty-five (45) min post dye injection, 20 μl of test compound or vehicle was applied topically onto one eye of each experimental animal. Thirty (30) min following topical drug application, guinea pigs were anesthetized and challenged subconjunctivally with histamine (300 ng/10 μl). Responses were quantitated as previously described by Yanni, J. M., Weimer, L. K., Glaser, R. K., Lang, L. S., Robertson, S. M., and Spellman, J. M. Int. Arch. Allergy Immunol. 101:102-106, 1993

[4] = % inhibition at concentration 0.1%
[5] = % inhibition at concentration 0.01%

| Compound | IC50 [1] [µM] | IC50 [2] [µM] | further results |
| --- | --- | --- | --- |
| CCN(CC)CCC1CCN(CCc2ccc3c(c2)/C(=C\CCN(C)C)c2ccccc2CO3)CC1 (as salt: fumaric acid salt) [Example 7, {3-[2-{2-[4-(2-Diethylamino-ethyl)-piperidin-1-yl]-ethyl}-6H-6,11-dibenz[b,e]oxepin-(11Z)-ylidene]-propyl}-dimethylamine fumaric acid salt] | – | – | melting point: 65 to 67 °C |
| CN(C)CC/C=C1/c2ccccc2COc2ccc(CC(=O)NC[C@@H]3CCCO3)cc21 [Example 1, (S)-2-{11-[3-Dimethylamino-prop-(Z)-ylidene]-6,11-dihydro-dibenz[b,e]-oxepin-2-yl}-N-tetrahydro-furan-2-ylmethyl)acetamide fumaric acid salt] | 61 | – | – |
| CCN(CC)CCC1CCN(C(=O)Cc2ccc3c(c2)/C(=C\CCN(C)C)c2ccccc2CO3)CC1 [Example 2, 1-[4-(2-Diethylamino-ethyl)-piperidin-1-yl]-2-{11-[3-dimethylamino-prop-(Z)-ylidene]-6,11-dihydro-dibenz[b,e]oxepin-2-yl}-ethanone fumaric acid salt] | 2 | – | – |
| CN(C)CC/C=C1/c2ccccc2COc2ccc(CC(N)=O)cc21 [Example 3, 2-[11Z-(3-Dimethylaminopropylidene)-6,11-dihydrodibenzo[b,e]oxepin-2-yl]acetamide] | 480 | 0.0022 | Histamine Induced Vascular Permeability ED50 or [Concentration] and (% inhibition) ([3]; % inhibition at concentration printed as 0.018 (no % sign)): 0.018 (59%) |
| CNC(=O)Cc1ccc2c(c1)/C(=C\CCN(C)C)c1ccccc1CO2 [Example 4, 2-[11Z-(3-Dimethylaminopropylidene)-6,11-dihydrodibenzo[b,e]oxepin-2-yl]-N-methylacetamide] | 220 | 0.0026 | Histamine Induced Vascular Permeability ED50 or [Concentration] and (% inhibition) [3, 4]: 0.1% (55%) |
| CN(C)CC/C=C1/c2ccccc2COc2ccc(CC(=O)NCCO)cc21 [Example 5, 2-[11Z-(3-Dimethylaminopropylidene)-6,11-dihydrodibenzo[b,e]oxepin-2-yl]-N-(2-hydroxyethyl)acetamide] | 770 | 0.0013 | Histamine Induced Vascular Permeability ED50 or [Concentration] and (% inhibition) [3, 5]: 0.01% (43%) |
| CN(C)CC/C=C1/c2ccccc2COc2ccc(CC(=O)N(C)C)cc21 [Example 6, 2-[11Z-(3-Dimethylaminopropylidene)-6,11-dihydrodibenzo[b,e]oxepin-2-yl]-N,N-dimethylacetamide] | 400 | 0.0026 | Histamine Induced Vascular Permeability ED50 or [Concentration] and (% inhibition) [3, 5]: 0.01% (56%) |
| CN(C)CC/C=C1/c2ccccc2COc2ccc(CCN)cc21 [Example 8, {3-[2-(2-Aminoethyl)-6H-dibenzo[b,e]oxepin-11-ylidene]propyl}-dimethylamine] | 2 | – | Histamine Induced Vascular Permeability ED50 or [Concentration] and (% inhibition) [3, 4]: 0.1% (32%) |
| CN(C)CC/C=C1/c2ccccc2COc2ccc(CCNS(C)(=O)=O)cc21 [Example 9, N-{2-[11-(3-Dimethylaminoprop-(Z)-ylidene)-6,11-dihydrodibenzo[b,e]-oxepin-2-yl]ethyl}-methanesulfonamide] | 15 | 0.127 | Histamine Induced Vascular Permeability ED50 or [Concentration] and (% inhibition) ([3]; % inhibition at concentration 0.018%): 0.018% (74%) |
| CC(=O)NCCc1ccc2c(c1)/C(=C\CCN(C)C)c1ccccc1CO2 [Example 10, N-[2-[11-(3-Dimethylaminoprop-(Z)-ylidene)-6,11-dihydrodibenzo[b,e]-oxepin-2-yl]ethyl}-acetamide] | 13 | 0.054 | Histamine Induced Vascular Permeability ED50 or [Concentration] and (% inhibition) [3, 4]: 0.1% (41%) |
| CN1CCC(=C2c3ccccc3COc3ccc(OCC(=O)O)cc32)CC1 [Example 11, [11-(1-Methylpiperidin-4-ylidene)-6,11-dihydrodibenzo[b,e]oxepin-2-yloxy]acetic acid hydrochloride] | 220 | – | – |
